From patent publication US20230091561A1, “METHODS OF TREATING PRIMARY PROGRESSIVE MULTIPLE SCLEROSIS USING AN INHIBITOR OF BRUTON'S TYROSINE KINASE” (Genentech, Inc., priority 2020, published 2023)
Read-outs that look alike come from different tables or passages of the source. Values belong to the compound of their own block, whether it stands above or below them.

Legend:
[1] = molecular target: T1, Fgr (Homo sapiens, UniProt P09769); design: purchased; conditions: footnote a (Crawford et al.); cited from earlier work
[2] = molecular target: T2, Src (Homo sapiens, UniProt P12931); design: purchased; conditions: footnote a (Crawford et al.); cited from earlier work
[3] = molecular target: T3, BMX (Homo sapiens, UniProt P51813); experiment: Covalent reaction (kinact/Ki), real-time competition with a fluorescent active site ligand, BMX
[4] = molecular target: T3, BMX; experiment: Kinase selectivity IC50, BMX
[5] = molecular target: FRK (Homo sapiens, UniProt P42685); experiment: Kinase selectivity IC50, FRK
[6] = molecular target: ERBB2 (Homo sapiens, UniProt P04626); experiment: Kinase selectivity IC50, ERBB2
[7] = molecular target: HCK (Homo sapiens, UniProt P08631); experiment: Kinase selectivity IC50, HCK
[8] = molecular target: TXK (Homo sapiens, UniProt P42681); experiment: Kinase selectivity IC50, TXK
[9] = molecular target: LYN (Homo sapiens, UniProt P07948); experiment: Kinase selectivity IC50, LYN
[10] = molecular target: T1, Fgr; experiment: Kinase selectivity IC50, Fgr
[11] = molecular target: BLK (Homo sapiens, UniProt P51451); experiment: Kinase selectivity IC50, BLK
[12] = molecular target: BRK (Homo sapiens, UniProt Q13882); experiment: Kinase selectivity IC50, BRK
[13] = molecular target: SRM (Homo sapiens, UniProt Q9H3Y6); experiment: Kinase selectivity IC50, SRM
[14] = molecular target: CSK (Homo sapiens, UniProt P41240); experiment: Kinase selectivity IC50, CSK
[15] = molecular target: YES (Homo sapiens, UniProt P07947); experiment: Kinase selectivity IC50, YES
[16] = molecular target: RIPK2 (Homo sapiens, UniProt O43353); experiment: Kinase selectivity IC50, RIPK2
[17] = molecular target: T2, Src; experiment: Kinase selectivity IC50, Src
[18] = molecular target: TNK2 (Homo sapiens, UniProt Q07912); experiment: Kinase selectivity IC50, TNK2
[19] = molecular target: RET (Homo sapiens, UniProt P07949); experiment: Kinase selectivity IC50, RET
[20] = molecular target: MLK2 (Homo sapiens, UniProt Q02779); experiment: Kinase selectivity IC50, MLK2
[21] = molecular target: FGFR1 (Homo sapiens, UniProt P11362); experiment: Kinase selectivity IC50, FGFR1
[22] = molecular target: FLT3 (Homo sapiens, UniProt P36888); experiment: Kinase selectivity IC50, FLT3
[23] = molecular target: T4, CDK8/cycC (Homo sapiens, UniProt P49336); experiment: Kinase selectivity IC50, CDK8/cycC; format: biochemical; conditions: unpublished
T4 construct: purchased

[24] = molecular target: MKNK2 (Homo sapiens, UniProt Q9HBH9); experiment: Kinase selectivity IC50, MKNK2
[25] = molecular target: CK1e1 (Homo sapiens, UniProt P49674); experiment: Kinase selectivity IC50, CK1e1
[26] = molecular target: LCK (Homo sapiens, UniProt P06239); experiment: Kinase selectivity IC50, LCK

T1 sequence (P09769 whole entry): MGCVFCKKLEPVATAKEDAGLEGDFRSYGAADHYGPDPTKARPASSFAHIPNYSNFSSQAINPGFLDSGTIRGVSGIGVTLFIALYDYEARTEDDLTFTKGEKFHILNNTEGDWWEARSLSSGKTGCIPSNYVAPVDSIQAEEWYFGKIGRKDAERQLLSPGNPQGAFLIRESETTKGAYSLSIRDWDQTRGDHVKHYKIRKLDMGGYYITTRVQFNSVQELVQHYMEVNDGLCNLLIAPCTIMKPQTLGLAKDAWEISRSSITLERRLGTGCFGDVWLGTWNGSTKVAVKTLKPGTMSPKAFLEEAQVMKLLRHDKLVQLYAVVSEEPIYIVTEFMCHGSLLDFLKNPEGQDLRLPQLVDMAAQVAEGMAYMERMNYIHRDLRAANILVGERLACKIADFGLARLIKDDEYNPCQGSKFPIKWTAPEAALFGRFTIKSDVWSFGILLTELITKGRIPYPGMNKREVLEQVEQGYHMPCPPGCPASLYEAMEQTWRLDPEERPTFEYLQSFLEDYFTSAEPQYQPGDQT
Chain of RIPK2 (O43353 whole entry): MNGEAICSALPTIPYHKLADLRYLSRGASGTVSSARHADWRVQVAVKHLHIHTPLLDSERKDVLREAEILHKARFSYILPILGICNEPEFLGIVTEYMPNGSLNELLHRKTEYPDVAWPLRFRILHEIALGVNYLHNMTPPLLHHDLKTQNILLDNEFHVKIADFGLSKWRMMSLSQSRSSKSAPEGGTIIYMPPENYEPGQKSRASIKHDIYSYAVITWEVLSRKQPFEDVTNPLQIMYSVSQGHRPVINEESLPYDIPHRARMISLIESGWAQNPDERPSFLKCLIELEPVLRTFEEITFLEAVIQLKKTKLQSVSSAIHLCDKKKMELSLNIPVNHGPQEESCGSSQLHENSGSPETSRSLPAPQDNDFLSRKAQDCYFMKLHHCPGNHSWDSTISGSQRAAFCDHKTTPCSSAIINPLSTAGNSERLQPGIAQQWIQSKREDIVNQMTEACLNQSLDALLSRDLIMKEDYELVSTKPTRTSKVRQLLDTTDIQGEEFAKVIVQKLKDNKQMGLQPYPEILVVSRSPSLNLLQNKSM
Chain of BRK (Q13882 whole entry): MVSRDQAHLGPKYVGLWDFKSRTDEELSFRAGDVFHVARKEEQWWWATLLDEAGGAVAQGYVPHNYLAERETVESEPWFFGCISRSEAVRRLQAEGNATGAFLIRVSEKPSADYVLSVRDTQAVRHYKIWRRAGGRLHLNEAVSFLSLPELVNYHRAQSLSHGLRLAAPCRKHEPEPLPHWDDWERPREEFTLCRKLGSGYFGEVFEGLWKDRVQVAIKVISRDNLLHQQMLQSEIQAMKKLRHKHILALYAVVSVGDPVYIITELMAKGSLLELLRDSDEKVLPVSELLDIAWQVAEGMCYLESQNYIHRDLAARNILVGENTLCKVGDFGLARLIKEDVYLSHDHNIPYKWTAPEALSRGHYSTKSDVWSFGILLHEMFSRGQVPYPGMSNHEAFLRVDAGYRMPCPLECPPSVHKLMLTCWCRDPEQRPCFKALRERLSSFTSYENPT
T2 sequence (P12931 whole entry): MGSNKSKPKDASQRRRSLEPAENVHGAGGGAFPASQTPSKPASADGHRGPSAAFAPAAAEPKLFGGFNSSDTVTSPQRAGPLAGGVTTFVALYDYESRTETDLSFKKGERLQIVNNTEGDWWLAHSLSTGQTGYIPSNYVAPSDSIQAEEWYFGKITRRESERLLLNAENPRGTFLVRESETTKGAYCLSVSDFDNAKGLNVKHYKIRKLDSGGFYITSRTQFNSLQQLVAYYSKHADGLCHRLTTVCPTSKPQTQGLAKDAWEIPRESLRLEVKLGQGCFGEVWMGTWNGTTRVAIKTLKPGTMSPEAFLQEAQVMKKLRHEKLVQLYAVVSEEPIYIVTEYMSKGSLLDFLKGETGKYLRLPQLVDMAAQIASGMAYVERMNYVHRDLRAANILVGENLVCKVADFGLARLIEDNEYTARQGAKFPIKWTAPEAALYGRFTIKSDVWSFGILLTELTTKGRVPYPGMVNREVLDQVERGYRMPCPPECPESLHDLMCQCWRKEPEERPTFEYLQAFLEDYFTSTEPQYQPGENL
T3 sequence (P51813 whole entry): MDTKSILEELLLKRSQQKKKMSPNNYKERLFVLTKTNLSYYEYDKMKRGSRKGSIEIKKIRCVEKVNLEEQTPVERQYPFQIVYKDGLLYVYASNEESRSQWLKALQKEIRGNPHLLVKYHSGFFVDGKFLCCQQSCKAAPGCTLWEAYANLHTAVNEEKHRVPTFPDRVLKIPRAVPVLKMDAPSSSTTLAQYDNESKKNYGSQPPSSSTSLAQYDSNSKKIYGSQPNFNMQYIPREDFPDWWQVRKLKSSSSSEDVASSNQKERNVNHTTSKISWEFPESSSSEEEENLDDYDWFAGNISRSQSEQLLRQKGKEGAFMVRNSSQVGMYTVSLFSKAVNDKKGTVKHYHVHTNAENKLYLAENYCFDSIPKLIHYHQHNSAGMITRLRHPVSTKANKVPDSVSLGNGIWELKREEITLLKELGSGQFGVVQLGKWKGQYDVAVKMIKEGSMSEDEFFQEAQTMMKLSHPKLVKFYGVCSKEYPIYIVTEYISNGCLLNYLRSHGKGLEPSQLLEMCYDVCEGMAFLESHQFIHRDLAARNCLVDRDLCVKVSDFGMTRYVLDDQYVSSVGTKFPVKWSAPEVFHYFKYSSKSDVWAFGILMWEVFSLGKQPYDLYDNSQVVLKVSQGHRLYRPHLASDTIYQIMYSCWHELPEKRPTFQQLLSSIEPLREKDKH
Chain of HCK (P08631 whole entry): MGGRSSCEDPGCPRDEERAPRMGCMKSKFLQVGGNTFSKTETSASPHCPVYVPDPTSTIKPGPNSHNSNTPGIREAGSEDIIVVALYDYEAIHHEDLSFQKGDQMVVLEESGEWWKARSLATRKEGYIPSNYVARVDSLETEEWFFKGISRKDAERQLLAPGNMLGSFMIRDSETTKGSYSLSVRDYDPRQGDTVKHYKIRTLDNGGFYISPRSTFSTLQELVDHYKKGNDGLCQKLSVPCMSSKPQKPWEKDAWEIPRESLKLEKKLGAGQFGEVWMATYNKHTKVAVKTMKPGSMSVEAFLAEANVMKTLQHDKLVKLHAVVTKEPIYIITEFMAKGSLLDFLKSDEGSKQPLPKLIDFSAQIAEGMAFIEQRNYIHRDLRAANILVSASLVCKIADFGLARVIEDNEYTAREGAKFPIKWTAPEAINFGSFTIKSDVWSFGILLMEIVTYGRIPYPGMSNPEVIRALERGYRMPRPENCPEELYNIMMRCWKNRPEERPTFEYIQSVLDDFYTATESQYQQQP
Chain of YES (P07947 whole entry): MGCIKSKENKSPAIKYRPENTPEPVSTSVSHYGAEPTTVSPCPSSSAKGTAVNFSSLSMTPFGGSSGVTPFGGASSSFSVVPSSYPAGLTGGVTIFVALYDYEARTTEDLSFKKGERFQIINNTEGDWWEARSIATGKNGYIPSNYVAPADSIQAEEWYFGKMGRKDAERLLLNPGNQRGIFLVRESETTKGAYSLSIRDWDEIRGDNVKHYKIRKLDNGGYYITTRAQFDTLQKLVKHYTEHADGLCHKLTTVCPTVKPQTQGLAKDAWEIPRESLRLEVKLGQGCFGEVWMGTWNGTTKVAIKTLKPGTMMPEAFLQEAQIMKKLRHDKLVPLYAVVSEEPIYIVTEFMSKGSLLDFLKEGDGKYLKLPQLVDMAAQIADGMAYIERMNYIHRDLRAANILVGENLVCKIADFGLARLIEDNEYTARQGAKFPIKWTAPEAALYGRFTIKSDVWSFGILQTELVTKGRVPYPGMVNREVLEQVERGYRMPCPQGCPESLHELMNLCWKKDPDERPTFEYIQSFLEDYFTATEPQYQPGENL
Chain of ERBB2 (P04626 23-1255): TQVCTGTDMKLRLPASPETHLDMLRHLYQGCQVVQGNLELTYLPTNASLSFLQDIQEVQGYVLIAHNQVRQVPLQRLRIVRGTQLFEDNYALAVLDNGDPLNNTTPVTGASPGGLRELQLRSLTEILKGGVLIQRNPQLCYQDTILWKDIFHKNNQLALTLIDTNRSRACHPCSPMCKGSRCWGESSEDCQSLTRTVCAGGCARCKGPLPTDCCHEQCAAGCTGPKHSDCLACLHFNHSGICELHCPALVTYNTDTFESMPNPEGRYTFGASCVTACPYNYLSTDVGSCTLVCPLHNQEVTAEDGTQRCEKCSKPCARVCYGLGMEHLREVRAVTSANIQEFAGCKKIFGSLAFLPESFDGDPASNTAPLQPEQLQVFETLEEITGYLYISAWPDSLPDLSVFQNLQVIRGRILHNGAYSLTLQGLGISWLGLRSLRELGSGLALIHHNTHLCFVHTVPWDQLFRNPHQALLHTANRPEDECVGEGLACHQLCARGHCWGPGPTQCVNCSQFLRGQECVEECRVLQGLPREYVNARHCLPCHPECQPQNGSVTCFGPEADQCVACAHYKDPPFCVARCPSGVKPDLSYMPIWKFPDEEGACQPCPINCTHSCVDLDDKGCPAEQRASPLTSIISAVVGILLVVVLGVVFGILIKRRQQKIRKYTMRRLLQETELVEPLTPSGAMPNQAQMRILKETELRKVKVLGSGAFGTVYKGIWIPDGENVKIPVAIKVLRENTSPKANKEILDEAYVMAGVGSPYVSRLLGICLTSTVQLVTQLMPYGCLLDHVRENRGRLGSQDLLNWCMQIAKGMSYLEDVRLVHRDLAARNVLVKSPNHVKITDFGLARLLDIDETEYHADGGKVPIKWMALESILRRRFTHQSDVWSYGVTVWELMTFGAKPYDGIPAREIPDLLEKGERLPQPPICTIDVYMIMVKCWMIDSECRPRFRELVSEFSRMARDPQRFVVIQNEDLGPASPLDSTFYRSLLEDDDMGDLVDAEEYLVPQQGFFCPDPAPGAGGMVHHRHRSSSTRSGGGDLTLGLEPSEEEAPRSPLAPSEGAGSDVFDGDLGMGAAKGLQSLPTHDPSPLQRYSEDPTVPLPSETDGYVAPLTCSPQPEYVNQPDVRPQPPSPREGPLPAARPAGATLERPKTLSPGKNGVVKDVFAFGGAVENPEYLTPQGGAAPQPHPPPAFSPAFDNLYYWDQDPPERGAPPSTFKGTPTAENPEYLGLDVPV

SMILES: C[C@H]1CN(C2COC2)CCN1c1ccc(Nc2cc(-c3ccnc(N4CCn5c(cc6c5CC(C)(C)C6)C4=O)c3CO)cn(C)c2=O)nc1 [Fenebrutinib]
- IC50 [1]: 387 nM
- IC50 [2]: 302 nM

- Ki [3]: 42 nM
- IC50 [4]: 2.5 nM
- IC50 [5]: 231 nM
- IC50 [6]: 25 nM
- IC50 [7]: 91 nM
- IC50 [8]: 3.9 nM
- IC50 [9]: 194 nM
- IC50 [10]: 33 nM
- IC50 [11]: 3 nM
- IC50 [12]: 44 nM
- IC50 [13]: 116 nM
- IC50 [14]: 87 nM
- IC50 [15]: 16 nM
- IC50 [16]: 125 nM
- IC50 [17]: 54 nM
- IC50 [18]: 847 nM
SMILES: C=CC(=O)N1CCC[C@@H](n2c(=O)n(-c3ccc(Oc4ccccc4)cc3)c3c(N)nccc32)C1 [Tolebrutinib]

- IC50 [19]: 8630 nM
- IC50 [20]: 3980 nM
- IC50 [21]: 4150 nM
- IC50 [22]: 2250 nM
- IC50 [23]: 3500 nM
- IC50 [10]: 2330 nM
- IC50 [12]: 6020 nM
- IC50 [24]: 4130 nM
- IC50 [25]: 1450 nM
- IC50 [14]: 7820 nM
- IC50 [16]: 4330 nM
- IC50 [26]: 3800 nM
SMILES: C=CC(=O)N1CCC(CNc2ncnc(N)c2-c2ccc(Oc3ccccc3)cc2)CC1 [Evobrutinib]
